The source of these data is patent US9573970B2, “4-{4-[(1E)-4-(2,9-diazaspiro[5.5]undec-2-yl)but-1-en-1-yl]-2-methylbenzyl}-5-(propan-2-yl)-1H-pyrazol-3-yl beta-D glucopyranoside acetate” (Eli Lilly and Company, priority 2013, dated 2017).

One test addresses T1, human SGLT2 (Homo sapiens, UniProt P31639).
T1 sequence (P31639 1-672): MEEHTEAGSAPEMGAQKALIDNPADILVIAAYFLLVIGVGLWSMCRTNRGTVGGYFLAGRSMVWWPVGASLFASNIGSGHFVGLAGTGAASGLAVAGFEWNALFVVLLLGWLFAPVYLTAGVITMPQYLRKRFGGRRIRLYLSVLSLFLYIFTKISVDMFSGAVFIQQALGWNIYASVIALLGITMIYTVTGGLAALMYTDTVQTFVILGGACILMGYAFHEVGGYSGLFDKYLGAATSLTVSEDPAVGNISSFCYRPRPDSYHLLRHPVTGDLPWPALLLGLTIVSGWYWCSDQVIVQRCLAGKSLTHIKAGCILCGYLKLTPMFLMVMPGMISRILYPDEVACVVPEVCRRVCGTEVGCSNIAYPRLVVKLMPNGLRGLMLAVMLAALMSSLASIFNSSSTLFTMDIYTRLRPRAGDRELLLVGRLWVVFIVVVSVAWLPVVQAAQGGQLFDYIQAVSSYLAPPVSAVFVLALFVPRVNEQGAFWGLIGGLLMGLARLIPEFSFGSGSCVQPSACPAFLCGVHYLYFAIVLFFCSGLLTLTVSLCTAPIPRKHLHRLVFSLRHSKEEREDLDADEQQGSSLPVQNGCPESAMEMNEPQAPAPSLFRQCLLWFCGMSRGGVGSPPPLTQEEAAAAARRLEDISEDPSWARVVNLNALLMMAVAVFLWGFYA
As to the kind of experiment: Sodium-dependent 14C-AMG uptake in CHO-K1 cells expressing human SGLT2. In kind it is cell-based. To be noted: n = 10. The text has this: The cDNA encoding human SGLT1 (slc5a1, NM_000343), human SGLT2 (slc5a2, NM_003041) and mouse SGLT1 (slc5a1, NM_019810.4) are purchased from Openbiosystems, Invitrogen and Openbiosystems, respectively. The cDNA is cloned into pcDNA3.1+ for mammalian expression and is stably transfected into Chinese hamster ovary (CHO)-K1 cells using standard mammalian transfection procedures. An SGLT-expressing sub-clone of each over-expressing cell line is selected based on resistance to neomycin (Geneticin, Invitrogen) and activity in the ^14C-α-methyl-D-glucopyranoside (^14C-AMG) uptake assay (see below). Stable SGLT-expressing cells are maintained using standard cell culture techniques.
The SGLT activity is measured as sodium-dependent ^14C-AMG uptake in the above cell lines described as follows. One hundred μL of culture medium containing 30,000 cells are seeded to each well of a 96-well BioCoat poly-D-lysine plate (Becton Dickson) and cultured at 37° C. overnight. The culture medium is aspirated and cells are washed twice with 200 μL of Reaction Buffer (140 mM NaCl, 2 mM KCl, 1 mM CaCl2, MgCl2, and 14 mM N-2-hydroethylpiperrazine-N′-2-ethanesulfonic acid (Hepes), pH 7.5). The excess buffer is tapped out onto paper towels. Thirty-five μL of Reaction Buffer are added to each well. […] After mixing, the scintillation signal in the plate is counted in a MicroBeta (PerkinElmer). […]

Test [1] deals with male rats with STZ-induced diabetes. The test is described as follows: Mixed meal tolerance test (MTT) in male rats with streptozotocin induced diabetes. In kind it is in vivo, rat. To be noted: for Glucose value, 0 min.: 30 min after compound, before meal; for Glucose value, 0 min. / Baseline Adjusted AUC (glucose) / Glucose value, 20 min. / Glucose value, 40 min. / Glucose value, 60 min. / Glucose value, 120 min.: mean ± SE; for Baseline Adjusted AUC (glucose): MTT. The method, then: The test compound is formulated by adding a vehicle of 1% hydroxyethylcellulose (HEC), 0.25% Tween® 80 w/antifoam 0.05% to preweighed test compound to make a 2.5 mg/ml solution. The mixture is probe sonicated for approximately 30 seconds. The resulting solution is used as a stock solution, from which the lower concentration dose solutions are prepared by dilution with the vehicle. STZ, 45 mg/kg, is formulated by dissolving in 0.1M Citrate buffer in 3 ml aliquots and stored in the dark on ice, when not being administered. A high fat content mixed meal (Bio-Serv® Rodent Diet F3282 High Fat) comprising Fat Calories (60%), Carbohydrate Calories (26%) and Protein Calories (15%) is utilized. Single housed Sprague Dawley rats are allowed to acclimate for a period of 3 to 7 days.
In an effort to ensure that the animals have not recently fed, STZ is administered in the afternoon, approximately six hours into the light cycle (lights on 6 am, lights off 6 pm). The animals are anesthetized with isoflurane and STZ is delivered via tail vein injection. Once animals regain consciousness, they are returned to housing and allowed to recover for 7 days.
On the two days immediately prior to the meal tolerance test (MTT) all rats are given a small amount (2-4 g) of the F3282 diet, so they became acclimated to it prior to receiving it during the experiment. On the evening before the experiment, the rats are moved into clean cages and their food is removed. The following morning animals are weighed and a blood sample is taken by tail snip for glucose measurement (Abbott AlphaTRAK™ glucometers: code 29) Animals are grouped n=6 based on fasted body weight and glucose. Thirty minutes after the test compound is orally administered, two glucose measurements are collected. Then a five gram pellet of Bio-Serv® diet 3282 is given. After 20 minutes remaining food is taken away and weighed. Blood samples are taken at 20, 40, 60 and 120 minutes for glucose measurement.

The mark [2] stands for this setting: in words, Example 1 free base 10 and 30 mg/kg, Acarbose 60 mg/kg.

By IC50 is commonly meant the concentration needed to halve the response being measured. Read a high IC50 as weaker potency in that assay. In the case of `Cc1cc(/C=C/CCN2CCCC3(CCNCC3)C2)ccc1Cc1c(O[C@@H]2O[C@H](CO)[C@@H](O)[C@H](O)[C@H]2O)n[nH]c1C(C)C` [Example 1 (free base), 4-{4-[(1E)-4-(2,9-diazaspiro[5.5]undec-2-yl)but-1-en-1-yl]-2-methylbenzyl}-5-(propan-2-yl)-1H-pyrazol-3-yl beta-D-glucopyranoside], the 50% inhibitory concentration (IC50) against human SGLT2 was 6.1 ± 1.2 µM. In test [1] (10 mg/kg oral), the “Glucose value, 0 min.” value was 139 ± 16.1 mg/dL; the “Baseline Adjusted AUC (glucose)” value was 22432 ± 2234; the “Glucose value, 20 min.” value is 221.2 ± 26.3 mg/dL; the “Glucose value, 40 min.” value came out at 268.7 ± 29 mg/dL. In addition, in test [1] (10 mg/kg oral), the “Glucose value, 60 min.” value amounted to 330 ± 36.7 mg/dL and the “Glucose value, 120 min.” value was 490.8 ± 39.2 mg/dL. For the same molecule, in test [1] (30 mg/kg oral), the “Glucose value, 0 min.” value is 137.4 ± 26.9 mg/dL; the “Baseline Adjusted AUC (glucose)” value was found to be 14649 ± 3673; the “Glucose value, 20 min.” value worked out at 195.4 ± 44.8 mg/dL; the “Glucose value, 40 min.” value amounted to 232 ± 52.2 mg/dL. For the same molecule, in test [1] (30 mg/kg oral), the “Glucose value, 60 min.” value turned out to be 263.9 ± 62.2 mg/dL and the “Glucose value, 120 min.” value was 355.3 ± 73.2 mg/dL. Besides, in test [1] (setting [2]), the “Glucose baseline adjusted AUCs in the MTT” value is on record as “dose dependent decrease in glucose baseline adjusted AUCs”; the “Glucose in the MTT compared to the vehicle controls” value is “significantly and dose dependently decreases glucose”.
